Patent publication US20210267978A1, “NANOPARTICLE FORMULATIONS OF IKE AND METHODS OF USE THEREOF” (The Trustees of Columbia University in the City of New York, priority 2018, published 2021)

Columns and labels:
[1] = test system: SUDHL6 xenograft tumor tissue; assay: Western blot of caspase-3 in tumor tissue from efficacy study; assay type: in vivo, NCG mice; settings: treatment for 14 days
Description: 10-25 mg tumor tissue was placed into a 1.5 mL Eppendorf microfuge tube, and the sample was placed on dry ice until use. 20 μL/mg ice cold RIPA buffer with cocktail protease inhibitor (Roche) was added. The tumor tissue was homogenized at speed 5 for 30 sec using Bead Ruptor 4. The sample was centrifuged at 4° C. at 1,600×g for 10 min. The sample was kept on ice and the supernatant used for analysis. Caspase-3 antibody which could recognize both full-length caspase-3 and cleaved caspase-3 was used. α-Tubulin antibody was used as the reference.

SUDHL6 cells [2] = assay: qPCR analysis of gene expression in cell culture; assay type: cell-based
Description: To perform qPCR analysis in cell culture, DLBCL cells were treated with 0-10 μM IKE, Fer-1, or β-Me for the indicated times. RNA was extracted using the Qiashredder and Qiagen RNeasy Mini kits (Qiagen) according to the manufacture's protocol. 2 μg RNA from each sample was reversed transcribed to cDNA using a High Capacity cDNA Reverse Transcription Kit (Thermo Fisher Scientific, 4368814). Quantitative PCR reactions were performed using Power SYBR Green PCR Master Mix (Applied Biosystems) with triplicate measurement on ViiA 7 Real-Time PCR instrument (Thermo Fischer). HPRT1 was used as an internal reference. Differences in mRNA levels compared with HPRT1 were computed between vehicle and experimental groups using the ΔΔCt method. The primers used in the study were listed below.

[3] = test system: SUDHL6 xenograft tumor tissue; assay: Immunofluorescence on frozen tumor sections from efficacy study (COX-2, MDA, 8-OHdG); assay type: in vivo, NCG mice
Description: NCG mice, 6-weeks old, were injected with 10 million SUDHLO-6 cells subcutaneously. The mice were treated after the tumor size reached 100 mm^3. Mice were separated randomly into treatment groups and dosed with 23 mg/kg IKE, 40 mg/kg IKE, 23 mg/kg IKE PEG-PLGA nanoparticles (equal to 700 mg/kg PEG-PLGA), vehicle 1 (based on volume), and vehicle 2 (700 mg/kg PEG-PLGA) once daily by IP for 14 days. Tumor volume was measured daily with electronic caliper and calculated using the formula: 0.5×length×width^2. 3 h after the final dosage, mice were euthanized with CO2 and tumor tissue was dissected, weighed, divided into 4-6 segments, frozen, and stored at −80° C. Tumor volume change was analyzed in Prism using one-way ANOVA. Tumor tissues were analyzed as described in the RT-qPCR, immunofluorescence, TBARS, and lipidomics sections below.
Tumor tissues were fixed in 4% paraformaldehyde (PFA) for 24 h at 4° C. followed by washing with PBS three times. The tissues were perfused in 30% sucrose for 24 h at 4° C. for cryo-protection. The samples were embedded in OCT cryostat sectioning medium, and then moved directly into a cryostat. After equilibration of temperature, frozen tumor tissues were cut into 5 μm thick sections. Tissue sections were mounted on to poly-L-lysine coated slides by placing the cold sections onto warm slides. Slides were stored at −80° C. until staining. For staining, slides were warmed to room temperature followed by washing with PBS twice. A hydrophobic barrier pen was used to draw a circle on each slide. The slides were permeabilized with PBS/0.4% Triton X-100 twice before non-specific-binding blocking by incubating the sections with 10% goat serum (ThermoFisher 50197Z) for 30 minutes at room temperature. The sections were separately incubated with mouse anti-MDA mAb 1F83 (1:1000 dilution), anti-cyclooxygenase 2 (COX 2, AKA PTGS2) antibody (Abcam, ab15191, 1:200 dilution), or anti-8-OH-dG (DNA/RNA damage) antibody (Abcam, ab62623, 1:200 dilution) overnight at 4° C. in humidified chambers. Sections were washed with PBST for twice before incubating with goat anti-mouse IgG H&L (Alexa Fluor 647) (Abcam, ab150115, 1:1000 dilution) or goat anti-rabbit IgG H&L highly cross-absorbed secondary antibody (Alexa Fluor488, Thermo Fisher Scientific, A-11034, 1:1000) at room temperature for 1 h. Slides were then washed twice with PBST. ProLong Diamond antifade mountant with DAPI (ThermoFisher P36962) was added onto slides, which were then covered with the coverslips, sealed by clear fingernail polish and observed under confocal microscopy. All images were captured on a Zeiss LSM 800 confocal microscope at Plan-Apochromat 63×/1.40 Oil DIC objective with constant laser intensity for all analyzed samples. The intensity above threshold of the fluorescent signal of the bound antibodies was analyzed using NIH ImageJ software. Data were expressed as fold change comparing with the vehicle.

SUDHL6 cells [4] = assay: C-11 BODIPY lipid peroxidation measurement (flow cytometry); assay type: cell-based; settings: different concentrations of IKE
Description: 0.20 million SUDHL-6 cells were seeded in sixc^− well plates and treated with DMSO, IKE, or Fer-1 at specific concentration. The final cell density of 0.05 million cells/mL. After 24 h, cells were harvested by centrifuging at 300×g for 5 min. Cells were resuspended in 500 μL HBSS containing 2 μM C11-BODIPY (BODIPY 581/591 C11) (Thermo Fisher Scientific, D3861) and incubated at 37° C. for 15 min. Cells were pelleted and resuspended in HBSS. Fluorescence intensity was measured on the FL1 channel with gating to record live cells only (gate constructed from DMSO treatment group). A minimum of 10,000 cells were analyzed per condition.

In the case of `CC(C)Oc1ccc(C(=O)Cn2ccnc2)cc1-n1c(CN2CCN(C(=O)COc3ccc(Cl)cc3)CC2)nc2ccccc2c1=O` [IKE, Imidazole ketone erastin], the “cleaved-caspase 3 in tumor tissue (western blot)” value [1] is reported as “no cleaved-caspase 3 increase”, the “GPX4, CBS and ACSL4 expression” value (SUDHL6 cells [2]; DLBCL cells, IKE treatment (data not shown)) is reported as “not upregulated” and the “SLC7A11, PTGS2 and CHAC1 expression” value (SUDHL6 cells [2]; SUDHL6 cells following IKE treatment) is reported as “significantly increased”. The “SLC7A11 expression induced starting from (time post incubation)” value (SUDHL6 cells [2]; SUDHL-6 cells, 500 nM IKE) was 3 h, the “expression of lipid metabolism genes ACC1, ELOVL7, ATGL, sPLA2F, LPEAT1, LPCAT4, ALOX12, ALOX15” value (SUDHL6 cells [2]; SUDHL-6 cells, 500 nM IKE) was “upregulated” and the “highest mRNA change (CHAC1)” value (SUDHL6 cells [2]; SUDHL-6 cells, 500 nM IKE) was 33 fold. For the same compound, the “increased PTGS2 expression” value (SUDHL6 cells [2]; SUDHL-6 cells, 500 nM IKE, starting from 5 minutes) was “over 10 fold”, the “increased CHAC1 expression” value (SUDHL6 cells [2]; SUDHL-6 cells, 500 nM IKE, starting from post 5 minutes) was “over 5 fold” and the “increase in 8-OHdG intensity (immunofluorescence)” value ([3]; 23 mg/kg daily for 14 days) was 1.8 fold. The “increase in COX-2 intensity (immunofluorescence)” value ([3]; 23 mg/kg daily for 14 days) was 2.0 fold, the “increase in MDA intensity (immunofluorescence)” value ([3]; 23 mg/kg daily for 14 days) was 1.8 fold and the “increase in 8-OHdG intensity (immunofluorescence)” value ([3]; 40 mg/kg daily for 14 days) was 2.2 fold. The “increase in COX-2 intensity (immunofluorescence)” value ([3]; 40 mg/kg daily for 14 days) was 2.8 fold, the “increase in MDA intensity (immunofluorescence)” value ([3]; 40 mg/kg daily for 14 days) was 2.0 fold and the “lipid ROS (C11-BODIPY)” value (SUDHL6 cells [4]) was “dose-dependent increase in lipid ROS”.
